# What was measured:
# Assay in all cases: Test C preemergence
# Type in all cases: in vivo
# [1] = test system: oilseed rape (Brassica napus); conditions: for Plant response rating, Oilseed Rape: scale 0 to 100, 0 no effect, 100 complete control
# Method in brief: (§1)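 Assessment: visual, 13–15 d after treatment, 0 (no effect) to 100 (complete control) relative to controls. Treatment: preemergence to seeds in loam-sand soil, or postemergence to 1- to 4-leaf plants in peat-based medium. Formulation: non-phytotoxic solvent mixture with surfactant.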
# [2] = test system: crabgrass, large (large crabgrass, Digitaria sanguinalis); conditions: for Plant response rating, Crabgrass, Large: scale 0 to 100, 0 no effect, 100 complete control
# Method in brief: as §1
# [3] = test system: corn (Zea mays); conditions: for Plant response rating, Corn: scale 0 to 100, 0 no effect, 100 complete control
# Method in brief: as §1
# [4] = test system: morningglory (Ipomoea coccinea); conditions: for Plant response rating, Morningglory: scale 0 to 100, 0 no effect, 100 complete control
# Method in brief: as §1
# [5] = test system: nutsedge, yellow (yellow nutsedge, Cyperus esculentus); conditions: for Plant response rating, Nutsedge, Yellow: scale 0 to 100, 0 no effect, 100 complete control
# Method in brief: as §1
# [6] = test system: Galium (catchweed bedstraw, Galium aparine); conditions: for Plant response rating, Galium: scale 0 to 100, 0 no effect, 100 complete control
# Method in brief: as §1
# [7] = test system: blackgrass (Alopecurus myosuroides); conditions: for Plant response rating, Blackgrass: scale 0 to 100, 0 no effect, 100 complete control
# Method in brief: as §1
# [8] = test system: waterhemp (common waterhemp, Amaranthus rudis); conditions: for Plant response rating, Waterhemp: scale 0 to 100, 0 no effect, 100 complete control
# Method in brief: as §1
# [9] = test system: ragweed (common ragweed, Ambrosia elatior); conditions: for Plant response rating, Ragweed: scale 0 to 100, 0 no effect, 100 complete control
# Method in brief: as §1
# [10] = test system: pigweed (Amaranthus retroflexus); conditions: for Plant response rating, Pigweed: scale 0 to 100, 0 no effect, 100 complete control
# Method in brief: as §1
# [11] = test system: ryegrass, Italian (Italian ryegrass, Lolium multiflorum); conditions: for Plant response rating, Ryegrass, Italian: scale 0 to 100, 0 no effect, 100 complete control
# Method in brief: as §1
# [12] = test system: wheat (winter wheat, Triticum aestivum); conditions: for Plant response rating, Wheat: scale 0 to 100, 0 no effect, 100 complete control
# Method in brief: as §1
# [13] = test system: foxtail, giant (giant foxtail, Setaria faberii); conditions: for Plant response rating, Foxtail, Giant: scale 0 to 100, 0 no effect, 100 complete control
# Method in brief: as §1
# [14] = test system: barnyardgrass (Echinochloa crus-galli); conditions: for Plant response rating, Barnyardgrass: scale 0 to 100, 0 no effect, 100 complete control
# Method in brief: as §1
# [15] = test system: velvetleaf (Abutilon theophrasti); conditions: for Plant response rating, Velvetleaf: scale 0 to 100, 0 no effect, 100 complete control
# Method in brief: as §1
# [16] = test system: johnsongrass (Sorghum halepense); conditions: for Plant response rating, Johnsongrass: scale 0 to 100, 0 no effect, 100 complete control
# Method in brief: as §1
# [17] = test system: soybean (Glycine max); conditions: for Plant response rating, Soybean: scale 0 to 100, 0 no effect, 100 complete control
# Method in brief: as §1
# [18] = test system: lambsquarters (Chenopodium album); conditions: for Plant response rating, Lambsquarters: scale 0 to 100, 0 no effect, 100 complete control
# Method in brief: as §1
# [19] = 31 g ai/ha, 0 is no effect, 100 is complete control
compound,measurement,setting,value
Cc1ccc(C2CN(C)C(=O)C2C(=O)Nc2ccccc2S(C)(=O)=O)cc1 (stereo not drawn) [Compound 663],"Plant response rating (scale of 0 to 100), Oilseed Rape",[1]; [19],30
same,"Plant response rating, Oilseed Rape",[1]; 62 g ai/ha,20
same,"Plant response rating, Oilseed Rape",[1]; 125 g ai/ha,65
same,"Plant response rating, Oilseed Rape",[1]; 250 g ai/ha,80
same,"Plant response rating (scale of 0 to 100), Crabgrass, Large",[2]; [19],95
same,"Plant response rating, Crabgrass, Large",[2]; 62 g ai/ha,98
same,"Plant response rating, Crabgrass, Large",[2]; 125 g ai/ha,100
same,"Plant response rating, Crabgrass, Large",[2]; 250 g ai/ha,100
same,"Plant response rating (scale of 0 to 100), Corn",[3]; [19],0
same,"Plant response rating, Corn",[3]; 62 g ai/ha,10
same,"Plant response rating, Corn",[3]; 125 g ai/ha,20
same,"Plant response rating, Corn",[3]; 250 g ai/ha,60
same,"Plant response rating (scale of 0 to 100), Morningglory",[4]; [19],0
same,"Plant response rating, Morningglory",[4]; 62 g ai/ha,35
same,"Plant response rating, Morningglory",[4]; 125 g ai/ha,30
same,"Plant response rating, Morningglory",[4]; 250 g ai/ha,40
same,"Plant response rating (scale of 0 to 100), Nutsedge, Yellow",[5]; [19],0
same,"Plant response rating, Nutsedge, Yellow",[5]; 62 g ai/ha,0
same,"Plant response rating, Nutsedge, Yellow",[5]; 125 g ai/ha,0
same,"Plant response rating, Nutsedge, Yellow",[5]; 250 g ai/ha,50
same,"Plant response rating (scale of 0 to 100), Galium",[6]; [19],90
same,"Plant response rating, Galium",[6]; 62 g ai/ha,90
same,"Plant response rating, Galium",[6]; 125 g ai/ha,85
same,"Plant response rating, Galium",[6]; 250 g ai/ha,90
same,"Plant response rating (scale of 0 to 100), Blackgrass",[7]; [19],20
same,"Plant response rating, Blackgrass",[7]; 62 g ai/ha,60
same,"Plant response rating, Blackgrass",[7]; 125 g ai/ha,85
same,"Plant response rating, Blackgrass",[7]; 250 g ai/ha,95
same,"Plant response rating (scale of 0 to 100), Waterhemp",[8]; [19],50
same,"Plant response rating, Waterhemp",[8]; 62 g ai/ha,60
same,"Plant response rating, Waterhemp",[8]; 125 g ai/ha,85
same,"Plant response rating, Waterhemp",[8]; 250 g ai/ha,90
same,"Plant response rating (scale of 0 to 100), Ragweed",[9]; [19],50
same,"Plant response rating, Ragweed",[9]; 62 g ai/ha,55
same,"Plant response rating, Ragweed",[9]; 125 g ai/ha,70
same,"Plant response rating, Ragweed",[9]; 250 g ai/ha,85
same,"Plant response rating (scale of 0 to 100), Pigweed",[10]; [19],70
same,"Plant response rating, Pigweed",[10]; 62 g ai/ha,60
same,"Plant response rating, Pigweed",[10]; 125 g ai/ha,70
same,"Plant response rating, Pigweed",[10]; 250 g ai/ha,75
same,"Plant response rating (scale of 0 to 100), Ryegrass, Italian",[11]; [19],10
same,"Plant response rating, Ryegrass, Italian",[11]; 62 g ai/ha,70
same,"Plant response rating, Ryegrass, Italian",[11]; 125 g ai/ha,50
same,"Plant response rating, Ryegrass, Italian",[11]; 250 g ai/ha,75
same,"Plant response rating (scale of 0 to 100), Wheat",[12]; [19],0
same,"Plant response rating, Wheat",[12]; 62 g ai/ha,50
same,"Plant response rating, Wheat",[12]; 125 g ai/ha,55
same,"Plant response rating, Wheat",[12]; 250 g ai/ha,90
same,"Plant response rating (scale of 0 to 100), Foxtail, Giant",[13]; [19],95
same,"Plant response rating, Foxtail, Giant",[13]; 62 g ai/ha,95
same,"Plant response rating, Foxtail, Giant",[13]; 125 g ai/ha,98
same,"Plant response rating, Foxtail, Giant",[13]; 250 g ai/ha,100
same,"Plant response rating (scale of 0 to 100), Barnyardgrass",[14]; [19],95
same,"Plant response rating, Barnyardgrass",[14]; 62 g ai/ha,90
same,"Plant response rating, Barnyardgrass",[14]; 125 g ai/ha,98
same,"Plant response rating, Barnyardgrass",[14]; 250 g ai/ha,100
same,"Plant response rating (scale of 0 to 100), Velvetleaf",[15]; [19],5
same,"Plant response rating, Velvetleaf",[15]; 62 g ai/ha,15
same,"Plant response rating, Velvetleaf",[15]; 125 g ai/ha,30
same,"Plant response rating, Velvetleaf",[15]; 250 g ai/ha,55
same,"Plant response rating (scale of 0 to 100), Johnsongrass",[16]; [19],0
same,"Plant response rating, Johnsongrass",[16]; 62 g ai/ha,10
same,"Plant response rating, Johnsongrass",[16]; 125 g ai/ha,20
same,"Plant response rating, Johnsongrass",[16]; 250 g ai/ha,40
same,"Plant response rating (scale of 0 to 100), Soybean",[17]; [19],0
same,"Plant response rating, Soybean",[17]; 62 g ai/ha,10
same,"Plant response rating, Soybean",[17]; 125 g ai/ha,0
same,"Plant response rating, Soybean",[17]; 250 g ai/ha,0
same,"Plant response rating (scale of 0 to 100), Lambsquarters",[18]; [19],70
same,"Plant response rating, Lambsquarters",[18]; 62 g ai/ha,60
same,"Plant response rating, Lambsquarters",[18]; 125 g ai/ha,65
same,"Plant response rating, Lambsquarters",[18]; 250 g ai/ha,85

# — patent US12077503B2, “Substituted cyclic amides and their use as herbicides” (FMC CORPORATION, priority 2015, dated 2024)
